We go through 30 compounds from patent US10858335B2 (Rigel Pharmaceuticals, Inc., priority 2014, dated 2020).

pIC50: −log10 of the molar value.

The first test has as its system GDF8 signaling (p-SMAD-3 (Ser423/425)). The test can be described thus: AlphaScreen SureFire SMAD3 (p-Ser423/425) assay, GDF8-stimulated cells (GDF pSMAD). It counts as cell-based. The settings on record: Mus musculus, MPC-11, GDF8-stimulated pSMAD3, MPC11; tested as the salt form given; read-out: GDF pSMAD (MPC11) (μM), inhibition of GDF8 signaling.
Turning to `Cc1cnc(-c2ccc(F)c(Cl)c2)c(-c2ccc3ncnc(N)c3c2)c1` [compound 990, 6-(2-(3-chloro-4-fluorophenyl)-5-methylpyridin-3-yl)quinazolin-4-amine], the IC50 worked out at 0.285 µM.

For the compound `Cc1cc(-c2ncccc2-c2ccc3ncnc(N)c3c2)c(C)cc1F` [compound 1002, 6-(2-(4-fluoro-2,5-dimethylphenyl)pyridin-3-yl)quinazolin-4-amine], the IC50 was 1.42 µM.

Still in this test, the particulars now being: Mus musculus, MPC-11, MPC11; GDF8-stimulated; p-SMAD3 AlphaScreen; read-out: GDF pSMAD (MPC11) (inhibition of GDF8 signaling).
In the case of `Cc1cc(-c2ncc(NCc3ccccn3)cc2-c2ccc3nccnc3c2)ccc1F` [compound 246, 6-(4-Fluoro-3-methylphenyl)-N-(pyridin-2-ylmethyl)-5-(quinoxalin-6-yl)pyridin-3-amine], the pIC50 is 5.89.

With `FC(F)(F)c1cccc(-c2ncccc2-c2ccc3nccnc3c2)c1` [compound 542, 6-(2-(3-(Trifluoromethyl)phenyl)pyridin-3-yl)quinoxaline], the pIC50 is 5.77.

As to `COc1cc(CNc2cnc(-c3ccc(F)c(C)c3)c(-c3ccc4ncsc4c3)c2)cc(OC)c1O` [compound 366, 4-(((5-(Benzo[d]thiazol-6-yl)-6-(4-fluoro-3-methylphenyl)pyridin-3-yl)amino)methyl)-2,6-dimethoxyphenol], the pIC50 was 6.65.

As to `COc1cc(Nc2nccc(-c3cccnc3-c3ccc(F)c(C)c3)n2)cc(OC)c1OC` [compound 903, 4-(2-(4-Fluoro-3-methylphenyl)pyridin-3-yl)-N-(3,4,5-trimethoxyphenyl)pyrimidin-2-amine], the pIC50 was 5.59.

Take `Cc1cc(-c2ncccc2-c2ccc3nc(N)ncc3c2)ccc1F` [compound 383, 6-(2-(4-Fluoro-3-methylphenyl)pyridin-3-yl)quinazolin-2-amine]: the pIC50 is 4.78.

For `Cc1cccc(-c2ncccc2-c2ccc3ncc(CN4CCOCC4)n3c2)c1` [compound 570, 4-((6-(2-(m-Tolyl)pyridin-3-yl)imidazo[1,2-a]pyridin-3-yl)methyl)morpholine], the pIC50 was 5.23.

For the compound `Nc1n[nH]c2cc(-c3cccnc3-c3ccc(F)c(Cl)c3)ccc12` [compound 800, 6-(2-(3-Chloro-4-fluorophenyl)pyridin-3-yl)-1H-indazol-3-amine], the pIC50 is 6.06.

Regarding `N#Cc1cnc2ccc(-c3cccnc3-c3cc(Cl)c(F)cc3F)nn12` [compound 951, 6-(2-(5-Chloro-2,4-difluorophenyl)pyridin-3-yl)imidazo[1,2-b]pyridazine-3-carbonitrile], the pIC50 is 6.27.

As to `Cc1ccc(F)c(-c2ncccc2-c2cnc3[nH]ncc3c2)c1` [Compound 153, 5-(2-(2-Fluoro-5-methylphenyl)pyridin-3-yl)-1H-pyrazolo[3,4-b]pyridine], the pIC50 was 6.35.

With `Cc1cc(F)ccc1-c1ncccc1-c1ccc2ncnc(N)c2c1` [compound 467, 6-(2-(4-Fluoro-2-methylphenyl)pyridin-3-yl)quinazolin-4-amine], the pIC50 is 4.91.

Regarding `Cn1cnc2ccc(-c3cccnc3-c3cccc(OC(F)F)c3)cc21` [compound 963, 6-(2-(3-(Difluoromethoxy)phenyl)pyridin-3-yl)-1-methyl-1H-benzo[d]imidazole], the pIC50 was 6.76.

For the compound `Cc1ccc(F)c(-c2ncccc2-c2ccn3ncnc3c2)c1` [compound 737, 7-(2-(2-Fluoro-5-methylphenyl)pyridin-3-yl)-[1,2,4]triazolo[1,5-a]pyridine], the pIC50 is 6.59.

On to `Cc1cc(-c2ncccc2-c2ccc3ncc(C(=O)NC4CCOCC4)n3c2)ccc1F` [compound 593, 6-(2-(4-Fluoro-3-methylphenyl)pyridin-3-yl)-N-(tetrahydro-2H-pyran-4-yl)imidazo[1,2-a]pyridine-3-carboxamide], for which the pIC50 was 5.73.

Take `COc1cc(CNc2cnc(-c3ccc(F)c(C)c3)c(-c3ccc4ncsc4c3)c2)ccc1O` [compound 351, 4-(((5-(Benzo[d]thiazol-6-yl)-6-(4-fluoro-3-methylphenyl)pyridin-3-yl)amino)methyl)-2-methoxyphenol]: the pIC50 is 6.67.

As to `Cc1ccc(-c2ccc3[nH]ncc3c2)c(-c2ccc(F)c(C)c2)n1` [Compound 12, 5-(2-(4-Fluoro-3-methylphenyl)-6-methylpyridin-3-yl)-1H-indazole], the pIC50 is 4.72.

Regarding `Cc1cccc(-c2ncccc2-c2ccc3ccncc3c2)c1` [Compound 210, 7-(2-m-Tolylpyridin-3-yl)isoquinoline], the pIC50 was 4.90.

As for `Fc1ccc(OC(F)(F)F)cc1-c1ncccc1-c1ccn2ncnc2c1` [compound 884, 7-(2-(2-Fluoro-5-(trifluoromethoxy)phenyl)pyridin-3-yl)-[1,2,4]triazolo[1,5-a]pyridine], the pIC50 was 6.00.

Regarding `Cc1cc(-c2ncc(NC(=O)NC(C)C)cc2-c2ccc3c(cnn3C(=O)NC(C)C)c2)ccc1F` [compound 215, 5-(2-(4-Fluoro-3-methylphenyl)-5-(3-isopropylureido)pyridin-3-yl)-N-isopropyl-1H-indazole-1-carboxamide], the pIC50 was 4.80.

Regarding `c1cc(-c2ncccc2-c2ccc3ncc(CN4CCOCC4)n3c2)cc(C2CC2)c1` [compound 571, 4-((6-(2-(3-Cyclopropylphenyl)pyridin-3-yl)imidazo[1,2-a]pyridin-3-yl)methyl)morpholine], the pIC50 was 5.14.

With `Cc1cc(-c2ncccc2-c2ccc3ncoc3c2)ccc1F` [Compound 180, 6-(2-(4-Fluoro-3-methylphenyl)pyridin-3-yl)benzo[d]oxazole], the pIC50 was 6.37.

Take `Fc1ccc(-c2ncccc2-c2ccc3ncccc3c2)cc1Cl` [compound 688, 6-(2-(3-Chloro-4-fluorophenyl)pyridin-3-yl)quinoline]: the pIC50 is 5.90.

For `COc1cccc(-c2ncccc2-c2ccc3ncsc3c2)c1` [compound 669, 6-(2-(3-Methoxyphenyl)pyridin-3-yl)benzo[d]thiazole], the pIC50 was 6.30.

As for `Nc1ncnc2ccc(-c3cccnc3-c3cc(F)c(F)c(F)c3)cc12` [compound 469, 6-(2-(3,4,5-Trifluorophenyl)pyridin-3-yl)quinazolin-4-amine], the pIC50 was 5.80.

With `Cc1c(-c2cccnc2-c2cccc(Cl)c2)ccc2ncnn12` [compound 811, 6-(2-(3-Chlorophenyl)pyridin-3-yl)-5-methyl-[1,2,4]triazolo[1,5-a]pyridine], the pIC50 is 5.53.

For the compound `Cc1cc(-c2ncccc2-c2ccn3ncc(C(=O)NCC4CCN(C)CC4)c3c2)ccc1F` [compound 656, 5-(2-(4-Fluoro-3-methylphenyl)pyridin-3-yl)-N-((1-methylpiperidin-4-yl)methyl)pyrazolo[1,5-a]pyridine-3-carboxamide], the pIC50 was 6.26.

With `Cc1cc(-c2ncccc2-c2ccc3ncsc3c2)ccc1F` [Compound 159, 6-(2-(4-Fluoro-3-methylphenyl)pyridin-3-yl)benzo[d]thiazole], the pIC50 is 6.88.

In the case of `Cc1cc(-c2ncccc2-c2ccc3ncnc(Oc4ccc5ncccc5c4)c3c2)ccc1F` [compound 446, 6-(2-(4-Fluoro-3-methylphenyl)pyridin-3-yl)-4-(quinolin-6-yloxy)quinazoline], the pIC50 was 6.40.

`Cc1cc(-c2ncc(NCc3ccc(O)c(F)c3)cc2-c2ccc3ncsc3c2)ccc1F` [compound 369, 4-(((5-(Benzo[d]thiazol-6-yl)-6-(4-fluoro-3-methylphenyl)pyridin-3-yl)amino)methyl)-2-fluorophenol]: the pIC50 was 6.71.
